Data published in patent US7109243B2 (IRM LLC, priority 2003, dated 2006).
Read-outs that look alike come from different tables or passages of the source.

Legend:
Cathepsin S = Cathepsin S (Homo sapiens, UniProt P25774); assay: Cathepsin S inhibition assay (fluorogenic peptide substrate); format: biochemical
In short: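 Ki values come from nonlinear fitting of inhibited hydrolysis rates, taking free and total inhibitor concentrations as equal. Rates measured as rising fluorescence at 380/450 nm after reaction start with 50 μM final acetyl-HPVK-aminocarbamoylcoumarin.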

Cathepsin K = molecular target: T1, Cathepsin K (Homo sapiens, UniProt P43235); assay: Cathepsin K inhibition assay (fluorogenic peptide substrate); selectivity ratio vs cathepsin S; format: biochemical; settings: for Ki: read-out: Ki (CatK)
T1 sequence (P43235 115-329): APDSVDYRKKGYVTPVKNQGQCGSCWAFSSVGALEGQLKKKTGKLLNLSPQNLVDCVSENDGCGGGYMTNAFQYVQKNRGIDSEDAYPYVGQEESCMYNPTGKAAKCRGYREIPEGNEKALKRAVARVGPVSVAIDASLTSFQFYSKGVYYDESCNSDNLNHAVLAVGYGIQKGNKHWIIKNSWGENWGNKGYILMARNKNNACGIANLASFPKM
In short: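 Fluorogenic kinetic assay, started with acetyl-Lys-His-Pro-Lys-aminocarbamoylcoumarin at 40 μM final, hydrolysis followed at ex 380/em 450 nm. Apparent inhibition constants from progress curves, converted to competitive inhibition constants. Selectivity expressed as isozyme inhibition constant divided by cathepsin S inhibition constant.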

[1] = Table II, compounds of Formula I, read-out: Ki Cat. S
[2] = ratio of cathepsin K inhibition constant to cathepsin S inhibition constant, Table II
[3] = comparison compounds in the art, read-out: Ki (CatS)
[4] = comparison compounds in the art, ratio Ki CatK / Ki CatS
[5] = comparison compounds in the art

Cathepsin S, sequence (P25774 115-331, species assumed): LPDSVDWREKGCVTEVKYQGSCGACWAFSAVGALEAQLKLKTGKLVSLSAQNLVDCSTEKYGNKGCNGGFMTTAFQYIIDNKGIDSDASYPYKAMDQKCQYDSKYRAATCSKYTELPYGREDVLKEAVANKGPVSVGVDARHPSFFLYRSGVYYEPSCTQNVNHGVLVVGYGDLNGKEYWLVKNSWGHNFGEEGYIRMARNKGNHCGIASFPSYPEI

Row | SMILES | Ki (Cathepsin S; [1]) | Selectivity for Cat. S over Cat. K (Cathepsin K; [2]) | Ki (Cathepsin S; [3]) | Selectivity for Cat. S over Cat. K (Cathepsin K; [4]) | Ki (Cathepsin K; [5])
1 | CS(=O)(=O)c1ccc(CC(=O)N[C@@H](CC2CCCCC2)C(=O)NCCNc2ccc(F)cc2)cc1 [Compound 326, 3-Cyclohexyl-N-[2-(4-fluoro-phenylamino)-ethyl]-2-(S)-[2-(4-methanesulfonyl-phenyl)-acetylamino]-propionamide] | < 1 µM | ++ (++, >100) | – | – | –
2 | COc1ccc(NCCNC(=O)[C@H](Cc2ccc(Oc3ccccc3)cc2)NC(=O)c2cccc(C)c2)cc1 [Compound 327, (S)-N-[1-[2-(4-Methoxy-phenylamino)-ethylcarbamoyl]-2-(4-phenoxy-phenyl)-ethyl]-3-methyl-benzamide] | < 1 µM | ++ (++, >100) | – | – | –
3 | COc1ccc(NCCNC(=O)[C@H](Cc2ccc(Oc3ccc(OC)cc3)cc2)NC(=O)c2cccc(C)c2)cc1 [Compound 328, (S)-N-{2-[4-(4-Methoxy-phenoxy)-phenyl]-1-[2-(4-methoxy-phenylamino)-ethylcarbamoyl]-ethyl}-3-methyl-benzamide] | < 1 µM | ++ (++, >100) | – | – | –
4 | COc1ccc(NCCNC(=O)[C@H](Cc2ccc(Oc3cccc(Cl)c3)cc2)NC(=O)c2cccc(C)c2)cc1 [Compound 329, (S)-N-{2-[4-(3-Chloro-phenoxy)-phenyl]-1-[2-(4-methoxy-phenylamino)-ethylcarbamoyl]-ethyl}-3-methyl-benzamide] | < 1 µM | ++ (++, >100) | – | – | –
5 | COc1ccc(NCCNC(=O)[C@H](Cc2ccc(Oc3cc(C)cc(C)c3)cc2)NC(=O)c2cccc(C)c2)cc1 [Compound 330, (S)-N-{2-[4-(3,5-Dimethyl-phenoxy)-phenyl]-1-[2-(4-methoxy-phenylamino)-ethylcarbamoyl]-ethyl}-3-methyl-benzamide] | < 1 µM | ++ (++, >100) | – | – | –
6 | CC(C)C[C@H](NC(=O)OCc1ccccc1)C(=O)NCCNc1cccc2ccccc12 [reference compound] | – | – | < 1 µM | <10 | < 0.1 µM
7 | COc1ccc(NCCNC(=O)[C@@H](CC(C)C)NC(=O)c2ccc(-c3ccccc3)cc2)cc1 [reference compound] | – | – | < 0.1 µM | <10 | < 0.1 µM

Other lines, results leading:

Row | Ki (Cathepsin S; [1]) | Selectivity for Cat. S over Cat. K (Cathepsin K; [2]) | Ki (Cathepsin S; [3]) | Selectivity for Cat. S over Cat. K (Cathepsin K; [4]) | Ki (Cathepsin K; [5]) | SMILES
8 | < 0.1 µM | + (+, >10) | – | – | – | CC[C@@H](C(=O)N[C@@H](CC1CCCCC1)C(=O)NCCNc1ccc(F)cc1)c1ccccc1 [Compound 318, N-{2-cyclohexyl-1-(S)-[2-(4-fluoro-phenylamino)-ethylcarbamoyl]-ethyl}-2-(R)-phenyl-butyramide]
9 | < 0.1 µM | ++ (++, >100) | – | – | – | O=C(NCCNc1ccc(F)cc1)[C@H](CC1CCCCC1)NC(=O)C1(c2ccccc2)CC1 [Compound 319, 1-Phenyl-cyclopropanecarboxylic acid (S)-{2-cyclohexyl-1-[2-(4-fluoro-phenylamino)-ethylcarbamoyl]-ethyl}-amide]
10 | < 1 µM | ++ (++, >100) | – | – | – | N#Cc1cccc(C(=O)N[C@@H](CC2CCCCC2)C(=O)NCCNc2ccc(F)cc2)c1 [Compound 321, 3-Cyano-N-(S)-{2-cyclohexyl-1-[2-(4-fluoro-phenylamino)-ethylcarbamoyl]-ethyl}-benzamide]
11 | < 0.1 µM | ++ (++, >100) | – | – | – | O=C(N[C@@H](CC1CCCCC1)C(=O)NCCNc1ccc(F)cc1)c1ccc(-c2ccc(F)cc2)o1 [Compound 322, 5-(4-Fluoro-phenyl)-furan-2-carboxylic acid (S)-{2-cyclohexyl-1-[2-(4-fluoro-phenylamino)-ethylcarbamoyl]-ethyl}-amide]
12 | < 0.1 µM | ++ (++, >100) | – | – | – | O=C(Cc1cccc(C(F)(F)F)c1)N[C@@H](CC1CCCCC1)C(=O)NCCNc1ccc(F)cc1 [Compound 323, 3-Cyclohexyl-N-[2-(4-fluoro-phenylamino)-ethyl]-2-(S)-[2-(3-trifluoromethyl-phenyl)-acetylamino]-propionamide]
13 | < 0.1 µM | ++ (++, >100) | – | – | – | N#Cc1cccc(C(=O)N[C@@H](CC2CCCCC2)C(=O)NCCNc2ccc(F)cc2)c1 [Compound 324, 3-Cyano-N-(S)-{2-cyclohexyl-1-[2-(4-fluoro-phenylamino)-ethylcarbamoyl]-ethyl}-benzamide]
14 | < 0.1 µM | ++ (++, >100) | – | – | – | O=C(Cc1ccc(C(F)(F)F)cc1)N[C@@H](CC1CCCCC1)C(=O)NCCNc1ccc(F)cc1 [Compound 325, 3-Cyclohexyl-N-[2-(4-fluoro-phenylamino)-ethyl]-2-(S)-[2-(4-trifluoromethyl-phenyl)-acetylamino]-propionamide]
